Reference: US11723957B2, “Compositions comprising relaxin and methods of use thereof” (Beth Israel Deaconess Medical Center, Inc., priority 2016, dated 2023)
Where “and” joins values, the source holds several entries; their conditions need not be identical. Equal entries are not always repeated. Entries after “also recorded” stand apart in the source; their conditions may differ. No end group written: not given here.

Tests used:
relaxin antibody = test: Antibody-based ELISA of PEGylated relaxin; format: binding; settings: Quantikine ELISA, six dilutions
[1] = system: glenohumeral joint capsule and articular cartilage; format: in vivo, Sprague Dawley rats
Excerpt: At the conclusion of the follow-up period, the rats were euthanized according to IACUC guidelines. The rats were weighed and then subjected to CO2 exposure for euthanasia, and further confirmed through a bilateral thoracotomy. The shoulders were bilaterally harvested by disarticulating the humerus from the ulna, and removing the scapula from the clavicle and thoracic cavity. Excess muscle tissue not immediately surrounding the glenohumeral joint capsule was removed. The excised shoulders were decalcified for two months in a solution of ethylenediaminetetraacetic acid (EDTA), which was changed every two to three days. Once decalcified, the shoulders were affixed in a solution of 10% formalin and then mounted in paraffin stacks for histological sectioning at the Beth Israel Deaconess Medical Center (BIDMC) Histology Core. These stacks were mounted so that coronal slicing could be obtained. The slices were stained with hematoxylin and eosin (H&E) and examined for any morphological changes. These slices were taken from a posterior region of humeral head to better find evidence of periarticular adhesions (Brue et al., Knee Surg. Sports Traumatol. Arthrosc., 2007, 15(8):1048-54; White et al., Radiographics, 2016, 36(3):824-39). Further slices, taken mid-coronally, were also stained with fibronectin antibodies paired with peroxidase to further examine fibrotic characteristics such as capsular thickening. Collagen III, α-smooth muscle actin, and other acute fibrotic markers were not chosen for analysis, since histologic sectioning would occur 4 months after contracture creation. The specimen chosen to undergo histological analysis were the surgical control group and the IAM group. The IAM group was chosen because this group received the highest and most frequent dose of relaxin, and was, therefore, the best candidate to showcase any morphologic changes due to relaxin administration. The contralateral shoulders from the surgical control group were used to model a healthy control shoulder for histologic comparisons.

[2] = system: NIH 373 murine fibroblasts; test: cAMP levels in fibroblasts exposed to relaxin; format: cell-based; settings: cultured NIH 373 murine fibroblasts exposed to relaxin
Experimental: The activity of recombinant relaxin (RLN2) was validated by measuring upregulation in the production of cAMP, a secondary metabolite of the relaxin signaling pathway. Increases in cAMP lead to increased MMP expression and decreased collagen and TIMP expression. To validate the activity of RLN2, cultured NIH 373 murine fibroblasts were exposed to relaxin, and the resulting cAMP levels were measured.

[3] = in vivo; cited from earlier work
[4] = system: rat shoulder contracture model (glenohumeral joint); test: ROM measurement in rat shoulder contracture model (Example 2); format: in vivo, Sprague Dawley rats; settings: for Final ROM, Total ROM: 8 weeks follow-up; for Difference ROM (% Δ°), External ROM / Difference ROM (% Δ°), Internal ROM / Difference ROM (% Δ°), Total ROM: final versus baseline
Experimental: On the approval of the Institutional Animal Care and Use Committee (IACUC) at Beth Israel Deaconess Medical Center, 20 Female Sprague Dawley rats (250-300 g, Charles River Laboratories, Inc., Wilmington, Mass., USA) were chosen for this study. Baseline ROM measurements were taken for both forelimbs of each rat prior to any surgical intervention. Torque measurements were recorded at […] (τINT) and 60° of external rotation (τOUT), totaling a full 160° range of motion (ROM) (FIG. 4, Panels B and C). These measurements were required as they indicate a baseline for normal torque necessary to achieve both rotations. The specific rotation angles were chosen under fluoroscopic guidance to ensure minimal scapular recruitment, while simultaneously allowing for maximum humeral rotation within the joint space. Each ROM measurement was repeated three times to ensure consistency. All measurements were also performed under anesthesia to prevent any active muscle activation from interfering with the passive capsular resistance. Induction of the rats was performed at 5% isoflurane inhalation, and maintenance was managed at a 2% isoflurane dose.
After the baseline measurements and under anesthesia, 20 rats were subjected to the immobilization procedure as outlined in Example 1 and in Villa-Camacho et al., Journal of Shoulder and Elbow Surgery, 2015, 24(11):1809-16, to induce fibrosis. In short, an incision was created longitudinally on the left limb, perpendicular to the scapular spine, to expose both the scapula and humerus. A No. 2-0 Ethibond polyester suture (Ethicon, San Lorenzo, PR, USA) was used to immobilize the humerus to the scapula by passing two loops through the medial border of the scapula and against the humeral shaft (FIG. 4, Panel A). Care was taken to ensure that the sutures avoided critical vasculature, musculature, and nerves. Each rat was maintained under fixation for 8 weeks. After the eighth week, the suture fixations were removed, and the rats were randomly placed in four groups: (1) intra-articular relaxin, single dose (IAS) (n=5); (2) intra-articular relaxin, multiple doses (IAM) (n=5); (3) intravenous relaxin, multiple doses (IVM) (n=5); and (4) untreated surgical controls (n=5). The sample size was determined with a power of 0.80 and α=0.05 if a 10% increase in range of motion from contracture was to be expected.
The mechanical testing apparatus was assembled with four core components and controlled with a computer through custom-built software written on MATLAB 7.13.0.564 (The MathWorks, Inc., Natick, Mass., USA). Movement of the forelimb was mediated by a stepper motor controlled by a microcontroller (UNO R3; Arduino, Torino, Italy). The motor was then positioned axially with the reaction torque sensor (TFF400; FUTEK Advanced Sensor Technology, Inc., Irvine, Calif., USA), which measured torque and was utilized as an input feedback for the system. Along the same axis, the arm clamp and the 3-axis inclinometer (3DM-GX3-15; MicroStrain, Inc., Williston, Vt., USA) were attached on the sensing side of the torque sensor. The inclinometer also provided both positional feedback as well as angular measurements for the system. The entire assembly was positioned above the rat with the sensing plane parallel to the ground to ensure that gravity had little impact on the torque measurements (FIG. 4). The apparatus was programmed to move to a specified torque or angle for internal and external rotation for each rat. Plastic zip ties were used to secure the rat forelimb in the apparatus. Care was taken to prevent any injury, and the apparatus was programmed with an internal and external limit switch in the case the apparatus operated abnormally.
Immediately after removal of the restraining sutures, relaxin was administered to the noncontrol group rats. […]

[5] = IAM: intra-articular, multiple doses, final measurement
[6] = IAS: intra-articular, single dose, final measurement
[7] = IVM: intravenous, multiple doses, final measurement

In the case of “PEGylated relaxin: relaxin reacted with mPEG-SVA (2000 MW); product conjugated with two PEG chains (chain 1 QLYSALANKCCHVGCTKRSLARFC; chain 2 DSWMEEVIKLCGRELVRAQIAICGMSTWS; not fully specified (bridges); ends and bridges not checked)”, the “Recognition by the relaxin antibody” value (relaxin antibody) is reported as “recognized by the relaxin antibody”.
In the case of relaxin, the “Capsular adhesions, H&E stained sections” value ([1]; IAM group, end of follow-up) is reported as “lacked any apparent adhesions”, the “Capsular tissue thickness, fibronectin stain” value ([1]; IAM group, end of follow-up) is reported as “return to normal thickness in capsular tissue” and the “Peroxidase intensity (fibronectin stain) in and around capsular tissue” value ([1]; IAM group, end of follow-up) is reported as “reduction in peroxidase intensity”. For the same substance, the “Articular cartilage quality, OARSI grading system” value ([1]; rat, in vivo) was “between a grade 1 and grade 2 level of osteoarthritis”, the “Fibrillation of the articular surface, H&E” value ([1]; rat, in vivo) was “both superficial and deep fibrillation within the articular surface” and the cAMP levels [2] was “dose-dependent upregulation of cAMP levels”. The Half-life [3] was “about 2.5 hours”, the “Treatment of shoulder contracture, overall result” value ([4]; 5 intra-articular doses of 0.0005 mg over 10 days (total 0.0025 mg)) was “effective in treating shoulder contracture; also recorded: full recovery with increased ROM for 60 days” and the “ROM of healthy contralateral forelimbs / systemic joint laxity” value ([4]; IAM, IAS and IVM groups) was “no significant change from baseline; also recorded: no systemic joint laxity was present”. The “Final ROM, Total ROM” value ([4]; IAM: intra-articular, multiple doses (5 x 0.0005 mg every 2 days), final measurement) was 159.13 ± 6.97 °, the “Final ROM, External ROM” value [4, 5] was 60.27 ± 11.05 ° and the “Final ROM, Internal ROM” value [4, 5] was 98.87 ± 10.63 °. The “Total ROM compared with surgical control group (statistics)” value ([4]; IAM, final measurement, P<0.01) was “significantly improved when compared with the control group”, the “Total ROM compared with baseline measurements (statistics)” value ([4]; IAM, final measurement, P=0.94) was “not statistically different from the baseline measurements” and the “Difference ROM (% Δ°), External ROM” value ([4]; IAM) was 1.01%. For the same substance, the “Difference ROM (% Δ°), Internal ROM” value ([4]; IAM) was −0.27%, the “Difference ROM (% Δ°), Total ROM” value ([4]; IAM) was 0.21% and the “Final ROM, Total ROM” value ([4]; IAS: intra-articular, single dose 0.0005 mg, final measurement) was 138.40 ± 15.34 °. The “Final ROM, External ROM” value [4, 6] was 63.13 ± 14.20 °, the “Final ROM, Internal ROM” value [4, 6] was 75.27 ± 15.62 ° and the “Increase in total ROM compared with surgical control (statistics)” value ([4]; IAS, final measurement) was “not found to be significant”. For the same substance, the “Restriction of total ROM compared with baseline” value ([4]; IAS, final measurement) was −21.72 °, the “Difference ROM (% Δ°), External ROM” value ([4]; IAS) was 5.22% and the “Difference ROM (% Δ°), Internal ROM” value ([4]; IAS) was −24.83%. The “Difference ROM (% Δ°), Total ROM” value ([4]; IAS) was −13.57%, the “Improvement in ROM over the surgical control group” value ([4]; IAS, measurement immediately following day 0, P=0.025) was 11.87 ° and the “Final ROM, Total ROM” value ([4]; IVM: intravenous, multiple doses (5 x 0.17 mg every 2 days), final measurement) was 127.93 ± 16.35 °. For the same substance, the “Final ROM, External ROM” value [4, 7] was 54.67 ± 15.30 °, the “Final ROM, Internal ROM” value [4, 7] was 73.27 ± 10.35 ° and the “Restriction of total ROM compared with baseline” value ([4]; IVM, final measurement) was −30.73 °. The “Difference ROM (% Δ°), External ROM” value ([4]; IVM) was −7.87%, the “Difference ROM (% Δ°), Internal ROM” value ([4]; IVM) was −26.24% and the “Difference ROM (% Δ°), Total ROM” value ([4]; IVM) was −19.42% and −19.37%. The “Treatment of shoulder contracture, overall result” value ([4]; single intra-articular injection of 0.0005 mg) was “ineffective”.
